Results on eleven molecules are retold here after patent US9796713B2, “Tricyclic compounds as alpha-7 nicotinic acetylcholine receptor ligands” (BRISTOL-MYERS SQUIBB COMPANY, priority 2014, dated 2017).

Molecules are shown by their SMILES.

T1 sequence (Q05941 23-502): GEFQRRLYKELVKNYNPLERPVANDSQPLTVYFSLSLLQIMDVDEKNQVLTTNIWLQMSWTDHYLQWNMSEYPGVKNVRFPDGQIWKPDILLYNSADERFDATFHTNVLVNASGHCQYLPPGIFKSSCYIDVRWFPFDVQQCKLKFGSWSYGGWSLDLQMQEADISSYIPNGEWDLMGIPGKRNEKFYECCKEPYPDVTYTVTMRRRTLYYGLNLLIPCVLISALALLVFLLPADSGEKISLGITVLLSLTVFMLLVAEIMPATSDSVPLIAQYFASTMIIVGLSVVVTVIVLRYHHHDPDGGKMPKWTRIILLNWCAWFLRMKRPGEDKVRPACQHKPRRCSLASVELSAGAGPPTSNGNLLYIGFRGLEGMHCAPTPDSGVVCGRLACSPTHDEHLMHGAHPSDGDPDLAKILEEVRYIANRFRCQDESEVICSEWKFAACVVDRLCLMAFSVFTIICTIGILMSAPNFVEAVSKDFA

One assay has as its target T1, α7-HI (Rattus norvegicus, UniProt Q05941).
T1 construct: expressed in transfected cells
Description: FLIPR Ca2+-sensitive fluorescence assay, α7-HI (agonist activity) in HEK 293 cells. It is filed as cell-based. The settings on record: Table 4; Ca2+ flux, HEK-293 cells expressing the channel; read-out: FLIPR α7-HI (EC50). The method, then:
I) α7 Nicotinic Acetycholine Receptor Binding. Membranes were prepared for binding using HEK293 cells stably expressing the rat α7 nicotinic acetycholine receptor (rat α7 nAChR). Cells were homogenized at 4° C. in hypotonic lysis buffer consisting of 10 mM Tris (pH 7.4), 5 mM EDTA and protease inhibitors and centrifuged at 32000×g for 20 minutes. The pellet was washed once in membrane wash buffer consisting of 50 mM Tris (pH 7.4), 1 mM EDTA and protease inhibitors and centrifuged at 32000×g for 20 minutes. This pellet was then resuspended in assay buffer consisting 50 mM KH2PO4 (pH 7.4 at 25° C.), 1 mM EDTA, 0.005% Triton-X 100 and 0.1% (v/v) Sigma Protease Inhibitor Cocktail. Aliquots were then frozen in dry ice/ethanol and kept at −80° C. until the day of the assay. II) A Ca^2+-Sensitive, Fluorescence-Based Assay α-7 for Nicotinic Acetylcholine Receptor Channel Function in Mammalian Cells (“FLIPR”). Summary: Lead compounds are evaluated for agonist activity at α-7, α3β4, α4αβ2, and α1β1δ1ε sub-types of nicotinic ACh receptor ion channels expressed in mammalian HEK 293 cells. Agonist potency and efficacy values are determined from kinetic fluorescence Ca^2+ influx measurements made using a 384 well FLIPR (Fluorescence Image Plate Reader). […] In this assay, channel expressing HEK cell lines seeded in 384 well assay plates are loaded with a membrane permeant fluorescent Ca^2+ indicator dye, whose 510 nm green emission signal increases in response to elevation of intracellular Ca^2+ concentration. The basal fluorescence from the cells is monitored in real time, followed by the acute addition of test compounds.
Materials and Methods: Reagents: The acetomethoxy (AM) ester of the Ca^2+ indicator dye Fluo-4 was obtained from InVitrogen, (Carlsbad, Calif.). Acetylcholine and all buffer constituents were purchased from Sigma Chemical Company, St. Louis, Mo. G418 and Minimal Essential Medium were purchased from InVitrogen Life Technologies, Carlsbad, Calif. Fetal bovine serum was purchased from (InVitrogen, Carlsbad, Calif.).
Cell Culture: HEK-293 cells were grown in Minimal Essential Medium containing 10% (v/v) fetal bovine serum at 37° C. in a 5% CO2 incubator. HEK-293 cells stably expressing the ion channels were grown in the same medium with the addition of 500 μg/ml G418.
Ca^2+ flux assays of Ca^2+ channels expressed in HEK-293 cells: HEK-293 cells expressing the ion channels of interest were plated in 384 well, black-walled, clear-bottomed, poly-D-lysine coated plates at a density of ˜20,000 cells/well in 20 μl of Minimal Essential Medium containing 10% (v/v) fetal bovine serum and incubated for 2 days at 29° C. in a 5% CO2 incubator. Prior to assay, cells were loaded with the Fluo-4 AM ester. […] Dye loading was allowed to proceed for 90 minutes at room temperature at which time the dye loading solution was removed and replaced with 40 μl/well of Hanks buffer. Cells loaded with dye were loaded onto a FLIPR384 (Molecular Devices, Sunnyvale, Calif.). Fluo-4 dye was excited using the 488 nm line of an argon laser. Emission was filtered using a 540+/−30 nm bandpass filter. For evaluation of the effects of test compounds using the Ca^2+ flux assay, compounds to be tested were provided in assay ready plates. For nicotinic receptor ion channel expressing cells, the assay was initiated by the addition of 20 μl/well of Hanks buffer containing test compounds. For all assays, data were collected at 1 Hz for 10 seconds (baseline), at which time the compound containing stimulus buffers are added, and further measurements collected at 0.33 Hz for 3 min.
Data Analysis: The statistical robustness of the nicotinic receptor Ca^2+ flux assays is determined from blanks and totals wells. […] The raw fluorescence units data files generated on the FLIPR plate reader are automatically exported and processed by in-house data analysis tools.
For the molecule `COc1ccc2c(C(=O)N3C4CC5CN(CCC53)C4)n[nH]c2c1` (stereo not drawn) [Example 43, ((2S*,3aR*,5R*,7aS*)-(6-methoxy-1H-indazol-3-yl)(hexahydro-2,5-methanopyrrolo[3,2-c]pyridin-1(6H)-yl)methanone], the EC50 (usually the concentration needed to bring the measured effect to its halfway point) amounted to 23 nM. For the molecule `O=C(c1n[nH]c2ccc(Br)cc12)N1C2CC3CN(CCC31)C2` (stereo not drawn) [Example 44, ((2S*,3aR*,5R*,7aS*)-(5-bromo-1H-indazol-3-yl)(hexahydro-2,5-methanopyrrolo[3,2-c]pyridin-1(6H)-yl)methanone], the EC50 is above 100000 nM.

Regarding `O=C(c1n[nH]c2c(Cl)cccc12)N1C2CC3CN(CCC31)C2` (stereo not drawn) [Example 45, ((2S*,3aR*,5R*,7aS*)-(7-chloro-1H-indazol-3-yl)(hexahydro-2,5-methanopyrrolo[3,2-c]pyridin-1(6H)-yl)methanone], the EC50 was above 100000 nM. As to `O=C(c1n[nH]c2cc(Cl)ccc12)N1C2CC3CN(CCC31)C2` (stereo not drawn) [Example 46, ((2S*,3aR*,5R*,7aS*)-(6-chloro-1H-indazol-3-yl)(hexahydro-2,5-methanopyrrolo[3,2-c]pyridin-1(6H)-yl)methanone], the EC50 came out at 10 nM.

As to `O=C(c1noc2ccccc12)N1C2CC3CN(CCC31)C2` (stereo not drawn) [Example 47, ((2S*,3aR*,5R*,7aS*)-benzo[d]isoxazol-3-yl(hexahydro-2,5-methanopyrrolo[3,2-c]pyridin-1(6H)-yl)methanone], the EC50 was found to be 1300 nM.

As for `COc1cccc2[nH]nc(C(=O)N3C4CC5CN(CCC53)C4)c12` (stereo not drawn) [Example 48, ((2S*,3aR*,5R*,7aS*)-(4-methoxy-1H-indazol-3-yl)(hexahydro-2,5-methanopyrrolo[3,2-c]pyridin-1(6H)-yl)methanone], the EC50 turned out to be 7400 nM. In the case of `Cc1ccc2c(C(=O)N3C4CC5CN(CCC53)C4)n[nH]c2c1` (stereo not drawn) [Example 49, ((2S*,3aR*,5R*,7aS*)-(6-methyl-1H-indazol-3-yl)(hexahydro-2,5-methanopyrrolo[3,2-c]pyridin-1(6H)-yl)methanone], the EC50 was found to be 4.2 nM.

On to `Cc1ccc2c(C(=O)N3[C@H]4C[C@@H]5C[N@@](CC[C@@H]53)C4)n[nH]c2c1` [Example 49a, (2S,3aR,5R,7aS)-(6-methyl-1H-indazol-3-yl)(hexahydro-2,5-methanopyrrolo[3,2-c]pyridin-1(6H)-yl)methanone], for which the EC50 is 3.1 nM. Regarding `Cc1ccc2c(C(=O)N3[C@@H]4C[C@H]5C[N@](CC[C@H]53)C4)n[nH]c2c1` [Example 49b, (2R,3aS,5S,7aR)-(6-methyl-1H-indazol-3-yl)(hexahydro-2,5-methanopyrrolo[3,2-c]pyridin-1(6H)-yl)methanone], the EC50 turned out to be 47 nM.

Still in this assay, the particulars now being: Table 5; Ca2+ flux, HEK-293 cells expressing the channel; read-out: FLIPR α7-HI (EC50).
In the case of `O=C(c1n[nH]c2ccccc12)N1C2CC3C1CCCN3C2` (centres unmarked) [Example 50, (1H-indazol-3-yl)(octahydro-2,8-epiminoindolizin-9-yl)methanone], the EC50 was determined as 360 nM. Still for that read-out and setting: the same measure for `O=C(c1cc2cccc(Cl)c2s1)N1C2CC3C1CCCN3C2` (centres unmarked) [Example 51, (7-chlorobenzo[b]thiophen-2-yl)(octahydro-2,8-epiminoindolizin-9-yl)methanone]: above 100000 nM.
